# System: WiDr human colon cancer cells
# Experiment: Proliferation inhibitory action on WiDr human colon cancer cells (CellTiter-Glo luminescence)
# Format: cell-based
# Conditions: 72 h, 3 days culture, CellTiter-Glo luciferase luminescence as indicator of living cells
# Protocol: WiDr human colon cancer cells, which had been cultured in an RPMI1640 medium (manufactured by SIGMA) containing 10% fetal bovine serum, penicillin (100 units/mL) and streptomycin (100 μg/mL), were dispersed on a 96-well plate in an amount of 2×10^3 cells/90 μl/well. The cells were cultured in a CO2 incubator overnight. Thereafter, 10 μl of the aforementioned culture solution containing the compound HX354 or HX355 of 3-fold dilution series used in the aforementioned examples was added to the culture, and the mixture was then cultured. Three days later, 50 μl of CellTiter-Glo Luminescent Cell Viability Assay (Promega) was added to the culture, the mixture was then shaken for 2 minutes, and it was then left at rest for 15 minutes. Thereafter, luciferase luminescence was measured with a luminometer, and the measured luminescence was used as an indicator for the number of living cells
# The concentrations (IC50 values) of HX354 and HX355, where the proliferation of the WiDr human colon cancer cells was inhibited by were obtained.
row,SMILES,IC50 [nM]
1,CCC(OC)C(C)C1OC1(C)CC(C)/C=C/C=C(\C)C1OC(CC(=O)O)CCC1C (centres unmarked) [HX354],91
2,CCC(O)C(C)C1OC1(C)CC(C)/C=C/C=C(\C)C1OC(CC(=O)O)CCC1C (centres unmarked) [HX355],168
